Data set [1] is described as follows: Leaching study of treated wood test blocks into water (Example 2). It counts as physicochemical. Here is the method:
Wood test blocks prepared in accordance with Example 1, were subjected to a leaching study.
In this leaching study the following procedure was observed. • 1. The wood test block was placed in 500 ml plastic containers with screw caps. • 2. Water was added to the container to over flowing and the container was sealed. • 3. The containers were stored at room temperature. • 4.

A short description of data set [2]: Leaching study of treated wood test blocks into water (Example 4). The data set is classed as physicochemical. Here is the method: In this example test blocks were prepared in accordance with the procedure of Example 1 and subjected a leaching study using the following procedure. • 1. The wood test blocks were placed in 500 ml plastic containers with screw caps. • 2. Water was added to the containers to over flowing and the container was sealed. • 3. The containers were stored at room temperature.
4. After two days the containers were opened and the leachate was analyzed for active quaternary compound (QAC) using a Hach DR/2400 Spectrophotometer.

The test system of the next data set is EN[…]. As to conditions: ATCC # 13048; lowest concentration which inhibits growth in all replicates.
In the next data set the test system is ESCHERICHIA
As to conditions: ATCC # 11229; lowest concentration which inhibits growth in all replicates.

Another data set deals with LISTERIA MONOCYTOGENES
As to conditions: ATCC # 35152; lowest concentration which inhibits growth in all replicates.

Data set [3] concerns PSEUDOMONAS AERUGINOSA
As to conditions: ATCC # 15442; lowest concentration which inhibits growth in all replicates.

Another data set has as its system SERRATIA MARCESANS
The conditions noted are these: ATCC # 13880; lowest concentration which inhibits growth in all replicates.

The test system of another data set is ST[…]. As to conditions: ATCC # 6538; lowest concentration which inhibits growth in all replicates.
Data set [4] relates to METHICILLIAN-RESISTANT STAPHYLOCOCCUS AUREUS. The conditions noted are these: ATCC # 33593; lowest concentration which inhibits growth in all replicates.
Another data set relates to AS[…]. The conditions noted are these: ATCC # 16424; lowest concentration which inhibits growth in all replicates.
The next data set concerns CANDIDA ALBICANS
As to conditions: ATCC # 10231; lowest concentration which inhibits growth in all replicates.

The subject of data set [5] is PSEUDOMONAS AERUGINOSA
The conditions noted are these: ATCC # 15442; ten-minute contact time.

A further data set has as its system SALMONELLA CHOLERAESUIS
The conditions noted are these: ATCC # 10708; ten-minute contact time.

In the next data set the test system is STAPHYLOCOCCUS AUREUS. As to conditions: ATCC # 6538; ten-minute contact time.

For “alkyl dimethyl benzyl ammonium chloride [ADBAC]”, in data set [1] (Example 2, ratio of averages), the “leaching of quaternary ammonium compound relative to the ADBAS compound” value was found to be 3.25 times. In addition, the “AVERAGE active quaternary compound in leachate, FINAL DATE May 8, 2004” value in data set [1] (average of three blocks, water, room temperature, after two days) is reported as 45.24 PPM QAC. Further, in data set [2] (Example 4, ratio of averages), the “leaching relative to the ADBAS compound” value is on record as 8.1 times. Besides, the “AVERAGE active quaternary compound in leachate, FINAL DATE Sep. 5, 2004” value in [2] (average of three blocks, water, room temperature, start Sep. 1, 2004) is on record as 480.0 PPM QAC.

Turning to “alkyl dimethyl benzyl ammonium saccharinate [ADBAS]”, the “Minimum Inhibitory Concentration (MIC) CONCENTRATION” value in the data set on EN[…] turned out to be 10 PPM; in the data set with ESCHERICHIA, 10 PPM; in the data set on LISTERIA MONOCYTOGENES, 1 PPM; in the data set with PSEUDOMONAS AERUGINOSA [3], 100 PPM; in the data set with SERRATIA MARCESANS it was 10 PPM; in the data set on ST[…], 1 PPM. Besides, the “Minimum Inhibitory Concentration (MIC) CONCENTRATION” value in data set [4] is 0.5 PPM; in the data set with AS[…] it was 10 PPM; in the data set on CANDIDA ALBICANS it was 100 PPM. The “AOAC USE-DILUTION VALUES CONCENTRATION” value in the data set with PSEUDOMONAS AERUGINOSA [5] was 700 PPM; in the data set with SALMONELLA CHOLERAESUIS it was 600 PPM; in the data set with STAPHYLOCOCCUS AUREUS, 600 PPM.

(Values after patent publication US20060128773A1, “Wood preservatives and waterproofing compositions and processes” (priority 2004, published 2006).)
